The values below come from US5739112A, “Inhibitors of factor Xa” (Corvas International, Inc., priority 1995, dated 1998).

Each structure is given as a SMILES string. Numbered stars: 1 amine (or outer) side, 2 acyl side, 3 side chain; on linkers, the order of the positions; unused ones are H or OH. Square brackets hold non-standard residues; d marks the D form. Peptide text beside a SMILES is read from it. * marks the point of attachment. 1Nal = N[C@@H](Cc1cccc2ccccc12)C(=O)O; 2Nal = N[C@@H](Cc1ccc2ccccc2c1)C(=O)O; d2Nal = N[C@H](Cc1ccc2ccccc2c1)C(=O)O; dPhg = N[C@@H](C(=O)O)c1ccccc1; Suc = O=C(CCC(=O)[*:2])[*:1]; Boc = CC(C)(C)OC(=O)*

Assay type in all cases: biochemical
One assay has as its target T1, Human α-thrombin (Homo sapiens, UniProt P00734).
T1 construct: purchased Enzyme Research Laboratories, Inc
Nature of the assay: Thrombin assay (chromogenic substrate S-2238). Particulars: for Percent Selectivity Thrombin: 100 times IC50 for factor Xa divided by IC50 for thrombin; for IC50: 60 min preincubation at room temperature, >25 means less than 50% inhibition at 25 μM. The protocol: (§1) To assay their activities, the compounds of the present invention are dissolved in buffer to give solutions containing concentrations ranging under assay concentrations from 0 to about 100 μM. The enzyme to be tested is then added to a solution containing a specified concentration of the test compound. Then after an incubation period, synthetic substrate for the enzyme being tested is added. The rate of substrate turnover is determined spectrophotometrically. The IC50 of the test compound is determined for each test compound in assays for factor Xa, factor XIa, thrombin and tPA. IC50 is that concentration of test compound giving 50% inhibition of the substrate turnover. Percent selectivity is used to indicate selectivity of a compound in inhibiting Factor Xa in comparison with either Factor XIa, thrombin or tPA. Percent selectivity of a particular compound for either Factor XIa, thrombin or tPA refers to a number obtained by dividing the product of one hundred and the IC50 of the compound for Factor Xa by the IC50 of the compound for either Factor XIa, thrombin or tPA.
(§2) The specificity of the peptide aldehydes through was determined by measurement of their IC50 against factor Xa, factor XIa, thrombin and tissue plasminogen activator (tPA). Peptide aldehyde which has been described in the art was run as a comparison. A specific concentration of enzyme and its substrate were challenged with varying concentrations: of inhibitor. IC50 is that concentration of inhibitor giving 50% inhibition of catalytic activity, under the assay conditions Specific assay procedures used are presented below.
Enzyme activity was determined using as substrate, S2238 (D-phenylalanyl-L-pipecolyl-L-arginine-p-nitroanilide dihydrochloride) which was obtained from Kabi Diagnostica. The substrate was made up in deionized water prior to use.
Human α-thrombin was obtained from Enzyme Research Laboratories, Inc. The enzyme was diluted into TBSA prior to use.
The assay was run by combining in appropriate wells 50 μL of TBSA, 50 μL of inhibitor in TBSA or TBSA (as negative control) and 50 μL of 4 nM human α-thrombin or TBSA (as background control). After incubating this mixture for 60 minutes at room temperature, 50 μL of 0.24 mM S-2238 was added to each well and the initial rate of the change of optical density at 405 nm (OD405 nm) for each well was determined. OD405 nm was measured every 10 seconds for 5 minutes.

The target of a further assay is T2, Human factor Xa (Homo sapiens, UniProt P00742).
T2 construct: Human factor X contains a light-chain subunit containing 139 amino acid residues; purchased Enzyme Research Laboratories
Nature of the assay: Factor Xa assay (chromogenic substrate S-2765). The conditions noted are these: for IC50: 60 min preincubation at room temperature, TBSA pH 7.4; for Percent Selectivity Xa: taken as 100 by definition. How it is done: as §1, §2
Enzyme activity was determined using as substrate, S2765 (N-a-benzyloxycarbonyl-D-argininyl-L-glycyl-L-arginine-p-nitroanilide dihydrochloride) which was obtained from Kabi Diagnostica. The substrate was made up in deionized water prior to use.
Human factor Xa was obtained from Enzyme Research Laboratories. The enzyme was diluted into TBSA prior to use.
The assay was run by combining in appropriate wells 50 μL of TBSA, 50 μL of inhibitor in TBSA or TBSA (as negative control) and 50 μL of 2 nM human Factor Xa or TBSA (as background control). After incubating this mixture for 60 minutes at room temperature, 50 μL of 1 mM S-2765 was added to each well and the initial rate of the change of the optical density at 405 nm (OD405 nm) for each well was determined. OD405 nm was measured every 10 seconds for 5 minutes.

For assay [1], the target named is T3, Human recombinant t-PA (Activase) (Homo sapiens, UniProt P00750).
T3 construct: purchased Genentech, Inc. Activase
Nature of the assay: tPA assay (substrate Pefachrome tPA). Particulars: for Percent Selectivity tPA: 100 times IC50 for factor Xa divided by IC50 for tPA; for IC50: 60 min preincubation at room temperature, >25 means less than 50% inhibition at 25 μM. The protocol: as §1, §2
Enzyme activity was determined using as substrate, Pefachrome tPA (O-methylsulfonate-D-hexahydrotyrosine-L-glycyl-L-argini ne-p-nit roanilide acetate salt) which was obtained from Centerchem, Inc. The substrate was made up in deionized water prior to use.
Human recombinant t-PA (Activase®) was obtained. from Genentech, Inc. The enzyme was reconstituted with water, then diluted into TBSA prior to use.
The assay was run by combining in appropriate wells 50 μL of TBSA, 50 μL of inhibitor in TBSA or TBSA (as negative control) and 50 μL of 4 nM human recombinant tPA or TBSA (as background control). After incubating this mixture for 60 minutes at room temperature, 50 μL of 4 mM Pefachrome tPA was added to each well and the initial rate of the change of optical density at 405 nm (OD405 nm) for each well was determined. OD405 nm was measured every 10 seconds for 5 minutes.

A further assay deals with T4, Human factor XIa (Homo sapiens, UniProt P03951).
T4 construct: purchased Enzyme Research Laboratories, Inc
Description: Factor XIa assay (chromogenic substrate S-2366). The conditions noted are these: for Percent Selectivity XIa: 100 times IC50 for factor Xa divided by IC50 for factor XIa; for IC50: 60 min preincubation at room temperature, >25 means less than 50% inhibition at 25 μM. How it is done: as §1, §2
Enzyme activity was determined using as substrate, S2366 (L-pyroglutamyl-L-prolyl-L-arginine-p-nitroanilide hydrochloride) which was obtained from Kabi Diagnostica. The substrate was made up in deionized water prior to use.
Human factor XIa was obtained from Enzyme Research Laboratories, Inc. The enzyme was diluted into TBSA prior to use.
The assay was run by combining in appropriate wells 50 μL of TBSA, 50 μL of inhibitor in TBSA or TBSA (as negative control) and 50 μL of 2 nM human Factor Xia or TBSA (as background control). After incubating this mixture for 60 minutes at room temperature, 50 μL of 6 mM S-2366 was added to each well and the initial rate of the change of the optical density at 405 nm (OD405 nm) for each well was determined. OD405 nm was measured every 10 seconds for 5 minutes.

What is called IC50 is the concentration at which inhibition is half-maximal.

T4 sequence (P03951 388-625 limits assumed): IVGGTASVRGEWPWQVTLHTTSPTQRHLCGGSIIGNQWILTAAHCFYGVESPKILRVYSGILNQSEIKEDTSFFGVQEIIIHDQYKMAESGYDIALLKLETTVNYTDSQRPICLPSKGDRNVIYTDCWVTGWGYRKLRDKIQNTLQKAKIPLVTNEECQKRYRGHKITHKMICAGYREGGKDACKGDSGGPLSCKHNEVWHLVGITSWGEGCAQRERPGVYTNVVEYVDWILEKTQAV
T4 sequence (P03951 19-387 partner limits assumed): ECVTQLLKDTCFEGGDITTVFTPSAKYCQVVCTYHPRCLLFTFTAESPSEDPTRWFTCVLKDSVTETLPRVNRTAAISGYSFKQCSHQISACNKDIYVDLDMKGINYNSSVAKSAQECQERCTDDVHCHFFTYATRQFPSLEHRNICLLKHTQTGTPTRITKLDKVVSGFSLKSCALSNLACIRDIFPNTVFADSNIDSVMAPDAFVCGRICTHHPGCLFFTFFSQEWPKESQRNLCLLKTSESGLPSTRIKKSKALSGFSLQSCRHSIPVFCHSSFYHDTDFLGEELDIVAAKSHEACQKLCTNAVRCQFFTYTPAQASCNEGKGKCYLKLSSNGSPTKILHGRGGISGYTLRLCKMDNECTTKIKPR
T3 sequence (P00750 36-562): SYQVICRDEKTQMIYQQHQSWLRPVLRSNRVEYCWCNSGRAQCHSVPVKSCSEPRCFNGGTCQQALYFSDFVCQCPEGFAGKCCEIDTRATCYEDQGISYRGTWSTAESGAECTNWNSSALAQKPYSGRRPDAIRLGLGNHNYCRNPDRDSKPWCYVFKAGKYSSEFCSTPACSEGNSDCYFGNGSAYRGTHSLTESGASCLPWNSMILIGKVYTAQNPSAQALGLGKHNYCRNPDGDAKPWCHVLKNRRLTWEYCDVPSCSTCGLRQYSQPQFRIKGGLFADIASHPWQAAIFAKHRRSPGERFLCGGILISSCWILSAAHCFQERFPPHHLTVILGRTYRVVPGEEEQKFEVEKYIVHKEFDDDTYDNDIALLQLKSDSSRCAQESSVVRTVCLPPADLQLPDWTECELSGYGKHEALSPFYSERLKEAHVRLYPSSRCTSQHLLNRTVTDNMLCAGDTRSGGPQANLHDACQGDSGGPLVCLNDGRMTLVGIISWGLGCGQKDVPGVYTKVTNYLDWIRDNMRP
T2 sequence (P00742 235-488 limits assumed): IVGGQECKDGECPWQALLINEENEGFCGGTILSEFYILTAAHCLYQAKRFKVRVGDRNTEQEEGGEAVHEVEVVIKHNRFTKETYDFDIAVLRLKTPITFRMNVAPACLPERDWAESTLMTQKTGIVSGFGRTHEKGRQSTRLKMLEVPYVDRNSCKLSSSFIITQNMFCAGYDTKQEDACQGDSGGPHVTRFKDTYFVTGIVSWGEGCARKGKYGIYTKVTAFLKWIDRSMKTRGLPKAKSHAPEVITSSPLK
T2 sequence (P00742 41-179 partner limits assumed): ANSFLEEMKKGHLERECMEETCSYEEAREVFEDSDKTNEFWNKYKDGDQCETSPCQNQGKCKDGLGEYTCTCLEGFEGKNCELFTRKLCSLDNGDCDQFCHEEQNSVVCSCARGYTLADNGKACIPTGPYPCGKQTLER

With `CC(C)(C)OC(=O)N[C@H](Cc1ccccc1)C(=O)N1CCC[C@H]1C(=O)N[C@H](C=O)CCCNC(=N)N` [[23], N-Boc-D-phenylalanyl-L-prolyl-L-argininal, reference compound], at Human α-thrombin, the “Percent Selectivity Thrombin” value is on record as 22,800 and the IC50 is 0.025 µM. In addition, at Human factor Xa, half-maximal inhibition (IC50) required 5700 nM and the “Percent Selectivity Xa” value came out at 100. Moreover, in assay [1], the “Percent Selectivity tPA” value was determined as 518 and the IC50 worked out at 1.1 µM. At Human factor XIa, the “Percent Selectivity XIa” value is given as 317 and the IC50 was 1.8 µM.

For `CC(C)(C)OC(=O)N[C@H](Cc1ccccc1)C(=O)N1CC[C@H](c2ccccc2)[C@H]1C(=O)N[C@H](C=O)CCCNC(=N)N` (relative stereo) [[10], N-t-butoxycarbonyl-D-phenylalanyl-L-(3-trans-phenyl)prolinyl-L-argininal], at Human α-thrombin, the “Percent Selectivity Thrombin” value is under 2.5 and the IC50 was over 25 µM. At Human factor Xa, the IC50 worked out at 625 nM and the “Percent Selectivity Xa” value was 100. In addition, in assay [1], the “Percent Selectivity tPA” value is under 2.5 and the concentration for half-maximal inhibition (IC50) was over 25 µM. Further, on Human factor XIa, the “Percent Selectivity XIa” value is under 2.5 and the IC50 is over 25 µM.

Consider `CC(C)(C)OC(=O)N[C@@H](C(=O)N[C@@H](Cc1ccccc1)C(=O)N[C@H](C=O)CCCN=C(N)N)c1ccccc1` [[2], N-t-Butoxycarbonyl-D-2-Phenylglycyl-L-phenylalanyl-L-Arainial] (Boc-[dPhg]-Phe-Arg-aldehyde), for which, at Human α-thrombin, the “Percent Selectivity Thrombin” value is on record as under 2.6 and the IC50 is over 25 µM. Moreover, on Human factor Xa, the IC50 was 640 nM and the “Percent Selectivity Xa” value is 100. For the same compound, in assay [1], the “Percent Selectivity tPA” value is listed as under 2.6 and the IC50 was over 25 µM. At Human factor XIa, the “Percent Selectivity XIa” value was 4.9 and the IC50 was determined as 13 µM.

On to `CC(C)(C)OC(=O)NC(C(=O)N[C@@H](Cc1cccc2ccccc12)C(=O)N[C@H](C=O)CCCNC(=N)N)c1ccc(-c2ccccc2)cc1` (stereo partly drawn) [[7], N-t-butoxycarbonyl-D,L-(α-biphenyl)glycyl-L-3-(1-naphthyl)alanyl-L-argininal], for which, on Human α-thrombin, the “Percent Selectivity Thrombin” value was under 10 and the half-maximal inhibitory concentration (IC50) was over 25 µM. At Human factor Xa, the IC50 is 2500 nM and the “Percent Selectivity Xa” value was found to be 100. In addition, in assay [1], the “Percent Selectivity tPA” value is reported as under 10 and the IC50 is over 25 µM. Further, on Human factor XIa, the “Percent Selectivity XIa” value is listed as under 10 and the concentration for half-maximal inhibition (IC50) was over 25 µM.

In the case of `CC(C)(C)OC(=O)N[C@H](Cc1ccc2ccccc2c1)C(=O)N[C@@H](Cc1ccccc1)C(=O)N[C@H](C=O)CCCNC(=N)N` [[1], N-t-butoxycarbonyl-D-3-(2-naphthyl)alanyl-L-phenylalanyl-L-argininal] (Boc-[d2Nal]-Phe-Arg-aldehyde), at Human α-thrombin, the “Percent Selectivity Thrombin” value worked out at 1.6 and the IC50 came to 14 µM. Also, on Human factor Xa, half-maximal inhibition (IC50) required 220 nM and the “Percent Selectivity Xa” value was found to be 100. Further, in assay [1], the “Percent Selectivity tPA” value was under 0.9 and the IC50 is over 25 µM. Moreover, at Human factor XIa, the “Percent Selectivity XIa” value worked out at 1.4 and the IC50 was 16 µM.

`CC(C)(C)OC(=O)N[C@H](Cc1ccccc1)C(=O)N[C@@H](Cc1ccc2ccccc2c1)C(=O)N[C@H](C=O)CCCNC(=N)N` [[3], N-t-butoxycarbonyl-D-phenylalanyl-L-3-(2-naphthyl)alanyl-L-argininal] (Boc-[dF]-[2Nal]-Arg-aldehyde): at Human α-thrombin, the “Percent Selectivity Thrombin” value worked out at 3.6 and it took 25 µM to reach half-maximal inhibition (IC50). Moreover, on Human factor Xa, the IC50 came to 890 nM and the “Percent Selectivity Xa” value was found to be 100. Also, in assay [1], the “Percent Selectivity tPA” value is under 3.6 and the half-maximal inhibitory concentration (IC50) was over 25 µM. For the same compound, on Human factor XIa, the “Percent Selectivity XIa” value was found to be 3.6 and the IC50 worked out at 25 µM.

Consider `N=C(N)NCCC[C@@H](C=O)NC(=O)[C@H](Cc1cccc2ccccc12)NC(=O)[C@@H](Cc1ccccc1)NC(=O)CCC(=O)O` [[8], N-succinyl-D-phenylalanyl-L-3-(1-naphthyl)alanyl-L-argininal] (Suc-[dF]-[1Nal]-Arg-aldehyde), for which, on Human α-thrombin, the “Percent Selectivity Thrombin” value is listed as under 0.1 and the IC50 is over 25 µM. At Human factor Xa, the IC50 was determined as 23 nM and the “Percent Selectivity Xa” value is given as 100. In assay [1], the “Percent Selectivity tPA” value is given as under 0.1 and the IC50 is over 25 µM. At Human factor XIa, the “Percent Selectivity XIa” value is 0.12 and the IC50 was 20 µM.

Consider `CC(=O)N[C@H](Cc1ccccc1)C(=O)N[C@@H](Cc1cccc2ccccc12)C(=O)N[C@H](C=O)CCCNC(=N)N` [[6], N-acetyl-D-phenylalanyl-L-3-(1-naphthyl)alanyl-L-argininal] (Ac-[dF]-[1Nal]-Arg-aldehyde), for which, at Human α-thrombin, the “Percent Selectivity Thrombin” value is on record as under 0.1 and the IC50 was over 25 µM. At Human factor Xa, the IC50 turned out to be 25 nM and the “Percent Selectivity Xa” value was 100. Also, in assay [1], the “Percent Selectivity tPA” value is under 0.1 and the IC50 is over 25 µM. In addition, on Human factor XIa, the “Percent Selectivity XIa” value came out at 7.8 and the half-maximal inhibitory concentration (IC50) was 0.32 µM.

As for `CC(C)(C)OC(=O)N[C@H](Cc1ccccc1)C(=O)N[C@@H](Cc1ccccc1)C(=O)N[C@H](C=O)CCCNC(=N)N` [[4], N-t-butoxycarbonyl-D-phenylalinyl-L-phenylalinyl-L-argininal] (Boc-[dF]-Phe-Arg-aldehyde), at Human α-thrombin, the “Percent Selectivity Thrombin” value is listed as under 0.8 and the IC50 is over 25 µM. Besides, on Human factor Xa, inhibition was half-maximal at 210 nM (IC50) and the “Percent Selectivity Xa” value is 100. In addition, in assay [1], the “Percent Selectivity tPA” value was under 0.8 and the IC50 was over 25 µM. In addition, on Human factor XIa, the “Percent Selectivity XIa” value worked out at 0.8 and it took 25 µM to reach half-maximal inhibition (IC50).

For the compound `CC(C)CCC(=O)N[C@H](Cc1ccccc1)C(=O)N[C@@H](Cc1cccc2ccccc12)C(=O)N[C@H](C=O)CCCNC(=N)N` [[9]], at Human α-thrombin, the “Percent Selectivity Thrombin” value is reported as under 0.68 and the IC50 is over 25 µM. Also, at Human factor Xa, the IC50 worked out at 170 nM and the “Percent Selectivity Xa” value is listed as 100. On Human factor XIa, the “Percent Selectivity XIa” value is under 0.68 and the IC50 is over 25 µM.
